PMC5589090 (PLoS Medicine, 2017)
Several values for one entry are separate records, joined by “and”; a condition that tells them apart may be missing. Identical values can stand only once. Entries after “also recorded” stand apart in the source; their conditions may differ. Like-named read-outs stand apart in the source and are kept apart here. Blank lines part the entries; values can stand above or below the compound they belong to.

Columns and labels:
[1] = 4 SCD subjects, subcutaneous or oral, 30-500 days; cited from earlier work
HbF [2] = details: same non-human primates (n = 14); cited from earlier work
nucleotide pool sizes = details: cited from earlier work
[3] = in vivo; cited from earlier work
[4] = design: method as in ref 40,59-61,63-69 (main text); 25;37-45 (protocol); details: 25;37-45 (protocol); cited from earlier work
[5] = cited from earlier work
[6] = THU solubility and storage stability; format: physicochemical; details: stored at -20°C; 1 year study and about 4 years re test
Description: Prior to administration, a glass bottle containing THU will be brought to room temperature, and dissolved in 2 ml water with a further dilution to a final volume of 10 ml, to create a solution with a final concentration that is determined by the amount of drug in the glass vial (THU is soluble to at least 100 mg/ml in water). Using this final concentration, a volume of solution containing the appropriate dose will be removed, diluted further with water to a total volume of 30ml and given by mouth. The time between reconstitution of drug and oral administration should not exceed 60 minutes, and remaining solution is to be discarded.

[7] = cited from earlier work; remark: listed apart in the source
[8] = design: method as in ref 26 (a number printed in a supplementary file, which may have a reference list of its own: not looked up in the article's list); details: cited from earlier work
mammary tumors = details: intraperitoneal 125-250 mg/kg thrice weekly for 6 months, rats surviving to 18 months; cited from earlier work
[9] = cited from earlier work; remark: listed apart in the source
HbF [10] = details: cited from earlier work

Structure (SMILES): Nc1ncn([C@@H]2O[C@H](CO)[C@@H](O)[C@H]2O)c(=O)n1 [5-azacytidine]
marrow toxicity [1]: No marrow toxicity was observed
greater increases in HbF than cytarabine or hydroxyurea (HbF [2]): 2 to 20 fold

stability of bulk drug [6]: demonstrate THU stability
Structure (SMILES): O=C1NC(O)CCN1[C@@H]1O[C@H](CO)[C@@H](O)[C@H]1O (stereo partly drawn) [THU, tetrahydrouridine]
effect on nucleotide pool sizes (nucleotide pool sizes): no effect
share of elimination by renal excretion [3]: ~ 50%
toxicity / side effects in animals and humans [4]: No toxicities have been found; also recorded: have not identified any toxic side-effects; also recorded: no toxic side-effects have been identified; also recorded: benign toxicity profile; also recorded: no side effects observed; also recorded: has not caused toxicity
solubility in water [5]: at least 100 mg/ml

Structure (SMILES): Nc1ccn([C@@H]2O[C@H](CO)[C@@H](O)[C@@H]2O)c(=O)n1 [cytarabine]
greater exposure in mice versus monkey dose for dose [7]: more than 100 fold

Structure (SMILES): Nc1ccn([C@@H]2O[C@H](CO)[C@@H](O)C2(F)F)c(=O)n1 [gemcitabine]
oral bioavailability ([8]; with THU co-administration): ~ 40%
oral bioavailability ([8]; without THU): ~ 10%

Structure (SMILES): NC(=O)NO [hydroxyurea]
incidence of mammary tumors (mammary tumors): increased the incidence of mammary tumors
genotoxicity ([9]; package insert): genotoxic in a wide range of test systems
neutrophil recovery time ([9]; pancellular hematologic toxicities, ref AHFS Drug Information, 2000): up to 2 weeks
mean change in HbF after 2 years of treatment (HbF [10]; SCD patients with no HbF response in the pivotal trial): ~0% and 0.3%
adult SCD patients in whom HbF increased for 2 years (HbF [10]; hydroxyurea 15–35 mg/kg, pivotal trial): approximately 50%
subjects who did not respond (no elevated HbF after two years) (HbF [10]; pivotal multi-center trial): approximately 50%
Average HbF increases at 2 years (HbF [10]; pivotal trial): 3.6%
average total hemoglobin increase (HbF [10]; pivotal trial): 0.6 g/dL
